Assay [1] deals with cells transfected with a metallothionein gene. The conditions noted are these: cited from earlier work.
Assay [2] relates to cells transfected with the c-myc gene. The following applies: cited from earlier work.
Assay [3] has as its system UCI CPR cells. The assay is described as follows: Colony formation (clonogenic) assay, cisplatin sensitivity. It counts as cell-based, human. Here is the method:
(§1) Cells and culture. Six human ovarian carcinoma cell lines (2008, A2780, HEY, IGROV-1, KF28 and UCI 107) were used in this study. Sublines stably resistant to DDP (2008/C13*5.25, A2780/CP70, HEY C2, IGROV-1/CP, KFr13 and UCI CPR) had been prepared from each parental line by repeated in vitro exposure to DDP as previously described (Mishima et al., 2002). All cell lines were maintained in drug-free RPMI-1640 medium (GIBCO, Inc.) with 10% fetal calf serum (GIBCO, Inc.) at 37° C. in a humidified atmosphere containing 5% CO2. The degree of resistance of each subline was determined at the time RNA was harvested using a clonogenic assay with continuous drug exposure as previously described (Mishima et al., 2002).
(§2) Cisplatin sensitivity. Colony formation assays were used to determine the sensitivity of the 6 pairs of DDP-sensitive and resistant cell lines to the cytotoxic effect of DDP.

The subject of assay [4] is HEY cells. The description is as above. It counts as cell-based, human. The following applies: parental HEY cells, continuous drug exposure. Here is the method:
as §1, §2

The test system of assay [5] is IGROV-1/CP cells. The description is as above. It counts as cell-based, human. How it is done: as §1, §2
Assay [6] relates to UCI 107 cells. Described as above. It counts as cell-based, human. The conditions noted are these: parental UCI 107 cells, continuous drug exposure. Here is the method: as §1, §2
For assay [7], the system named is KFr13 cells. The assay is described as above. It counts as cell-based, human. How it is done:
as §1, §2

In assay [8] the test system is HEY C2 cells. The assay is described as above. The class given is cell-based, human. How it is done: as §1, §2
Assay [9] deals with 2008/C13*5.25 cells. Described as above. It counts as cell-based, human. How it is done: as §1, §2
Assay [10] concerns A2780/CP70 cells. The assay is described as above. The class given is cell-based, human. How it is done:
as §1, §2

Assay [11] concerns KF28 cells. The description is as above. The following applies: parental KF28 cells, continuous drug exposure. The class given is cell-based, human. Here is the method: as §1, §2
Assay [12] has as its system 2008 cells. The description is as above. The conditions noted are these: parental 2008 cells, continuous drug exposure. It counts as cell-based, human. Here is the method:
as §1, §2

Assay [13] concerns IGROV-1 cells. Described as above. It counts as cell-based, human. The following applies: parental IGROV-1 cells, continuous drug exposure. Here is the method:
as §1, §2

Assay [14] deals with A2780 cells. The description is as above. The conditions noted are these: parental A2780 cells, continuous drug exposure. The class given is cell-based, human. Here is the method:
as §1, §2

For `N.N.[Cl][Pt][Cl]` [Cisplatin, cis-diamminedichloroplatinum], the “level of increased resistance” value is reported as “less than 5 fold” in assay [1] and “less than 3 fold” in [2]. Also, the “Fold-resistant (ratio of IC50 values)” value in assay [3] (UCI CPR vs UCI 107) came to 8 fold; in assay [5] (IGROV-1/CP vs IGROV-1), 3.6 fold; in assay [7] (KFr13 vs KF28), 2.2 fold; in assay [8] (HEY C2 vs HEY) it was 6.1 fold; in assay [9] (2008/C13*5.25 vs 2008), 1.6 fold; in [10] (A2780/CP70 vs A2780), 11.9 fold. Besides, the IC50 (as a rule, the point on the concentration scale where inhibition reaches its midpoint) in assay [3] (resistant UCI CPR cells, colony formation, continuous drug exposure) was 8000 nM; in assay [4], 760 nM; in [5] (resistant IGROV-1/CP cells, colony formation, continuous drug exposure) it was 1080 nM; in assay [6], 1000 nM; in [7] (resistant KFr13 cells, colony formation, continuous drug exposure) it was 400 nM; in [8] (resistant HEY C2 cells, colony formation, continuous drug exposure), 4600 nM. The IC50 was 1100 nM in assay [9] (resistant 2008/C13*5.25 cells, colony formation, continuous drug exposure); 2500 nM in [10] (resistant A2780/CP70 cells, colony formation, continuous drug exposure); 180 nM in [11]; 700 nM in assay [12]; 300 nM in [13]; 210 nM in assay [14].

The values above are taken from US20060019268A1, “Molecular markers of cisplatin resistance in cancer and uses thereof” (Research Development Foundation, priority 2004, published 2006).
